These results are taken from patent publication US10894885B2, “Crosslinkable composition and method for producing a coated article” (HWK KRONBICHLER GMBH, priority 2016, dated 2021).

Structures are written as SMILES.

This data set is described as follows: Surface tension at a suspended drop (Drop Shape Analyser DSA 25). Format: physicochemical. Conditions: 23.5-25.0° C., ten measurements. As for the experimental part: The surface tension was determined at a suspended drop using a “Drop Shape Analyser DSA 25” of the Krüss corporation. The measurements were performed at temperatures between 23.5 and 25.0° C. and at a relative humidity of approximately 15-30%. The sample was measured a total of ten times. The standard deviation is marked by s in Table 4 shown below.

For the compound `C=Cn1cc[n+](CCC(F)(F)C(F)(F)C(F)(F)C(F)(F)C(F)(F)C(F)(F)F)c1.[Cl-]` [3-(1H,1H,2H,2H-perfluorooctyl)-1-vinyl-1H-imidazoliumchloride], the “OFS (surface tension)” value (c 0.5 w/w % in water) is 21.94 mN/m and the “OFS (surface tension)” value (c 1 w/w % in water) came to 20.58 mN/m.
